Reference: patent EP3898610B1, “NOVEL AZA-HEXAPHENE ANTIBIOTIC COMPOUNDS” (Fondazione Istituto Insubrico di Ricerca per la Vita, priority 2018, dated 2020)
Values after ≈ are worked out from the molar mass of the structure shown. Like-named read-outs stand apart in the source and are kept apart here.

Experiments:
[1] = system: Hela cells from cervix adenocarcinoma; experiment: Cytotoxicity against human cells; format: cell-based; settings: at 200 µg/ml
VA645601 B. clausii = experiment: MIC, broth microdilution (CLSI); format: cell-based; settings: Shouchella clausii, 35°C, 18-24 hours
Description: (§1) Antibacterial activity. The antimicrobial activity of the antibiotic 103/33-F710 was determined by the broth microdilution method according to the procedures published by the Clinical and Laboratory Standards Institute (CLSI), formerly the National Committee for Clinical Laboratory Standards (NCCLS) (document M07-A9). Microorganisms were grown in either cation-adjusted Mueller Hinton Broth (Staphylococci, Enterococci, Moraxella catarrhalis, Escherichia coli), Todd Hewitt medium (Streptococci) or RPMI 1640 medium for Candida albicans on 96-well microtiter plates. Each bacterial strain was inoculated with 2-5×10^5 CFU/ml, Candida albicans with 10^4 CFU/ml. Cultures were incubated at 35°C in air. After 18-24 hours visual readings were performed and MICs (Minimal Inhibitory Concentrations) determined. The effect of 30% bovine serum was determined under the same experimental conditions. The strains used were clinical isolates or strains from American Type Culture Collection (ATCC). The antibiotic 103/33-F710 was dissolved in DMSO to obtain a 1000 µg/ml stock solution, and subsequently diluted in water to obtain working solution. Table 5: Antimicrobial activity reported as MIC (µg/ml) of ID103/33-F710

VA827901 B. cereus = experiment: MIC, broth microdilution (CLSI); format: cell-based; settings: Bacillus cereus, 35°C, 18-24 hours
Description: as §1

[2] = system: VA801801 L. monocytogenes; experiment: MIC, broth microdilution (CLSI); format: cell-based; settings: Listeria monocytogenes, 35°C, 18-24 hours
Description: as §1

[3] = system: Staphylococcus aureus Smith 819 ATCC 19636; experiment: Murine septicemia model; format: in vivo; settings: ATCC19636, intravenous administrations
From the text: Effectiveness. […] This level of protection was observed after intravenous administrations.

L145 C. albicans = experiment: MIC, broth microdilution (CLSI); format: cell-based; settings: Candida albicans
Description: as §1
Antibacterial activity. The antimicrobial activity of the antibiotic 103/33-F696 was determined by the broth microdilution method according to the procedures disclosed in Example 7. Table 6: Antimicrobial activity reported as MIC (µg/ml) of compound 2 (103/33-F696)
Antibacterial activity. The antimicrobial activity of the antibiotic 103/33-F712 was determined by the broth microdilution method according to the procedures disclosed in Example 7. Table 7: Antimicrobial activity reported as MIC (µg/ml) of ID103/33-F712

Solubility = format: physicochemical
Description: (§2) Solubility of compound 1 (103/33 F-710) was poor in most low to medium- polarity organic solvents, as well as in water from acidic to neutral pH; it was more soluble at basic pH and stable up to pH 8-9, while in alcohols it ranged between 5-10 mg/ml. […] Some crystallizations trials were performed on compound 1 (103/33 F-710) in order to obtain suitable crystals for the X-ray structural characterization.

[4] = system: L4187 E. faecium VanA - Lnz R - Cpx R; experiment: microbe, parasite or virus in culture; format: cell-based; settings: Enterococcus faecium; L4187 E. faecium VanA - Lnz R - Cpx R; cation-adjusted Mueller Hinton Broth, 35°C, 18-24 hours; read-out: MIC
Description: (§3) Antibacterial activity. […] Each bacterial strain was inoculated with 2-5×10^5 CFU/ml, Candida albicans with 10^4 CFU/ml. Cultures were incubated at 35°C in air. After 18-24 hours visual readings were performed and MICs (Minimal Inhibitory Concentrations) determined. The effect of 30% bovine serum was determined under the same experimental conditions. The strains used were clinical isolates or strains from American Type Culture Collection (ATCC).

[5] = system: HepG2 cells from hepatocarcinoma; experiment: Cytotoxicity against human cells; format: cell-based; settings: at 200 µg/ml, the highest concentration tested
[6] = system: VA80201 S. aureus CA-MRSA; experiment: MIC, broth microdilution (CLSI); format: cell-based; settings: Staphylococcus aureus; VA80201 S. aureus CA-MRSA; cation-adjusted Mueller Hinton Broth, 35°C, 18-24 hours; read-out: MIC
Description: as §3

[7] = system: L1729 S. haemolyticus MDR; experiment: MIC, broth microdilution (CLSI); format: cell-based; settings: Staphylococcus haemolyticus
Description: as §3

L819 S. aureus Smith = experiment: MIC, broth microdilution (CLSI); format: cell-based; settings: Staphylococcus aureus
Description: as §3

L568 E. faecium = experiment: MIC, broth microdilution (CLSI); format: cell-based; settings: Enterococcus faecium
Description: as §3

L100 S. aureus ATCC6538P = experiment: MIC, broth microdilution (CLSI); format: cell-based; settings: Staphylococcus aureus
Description: as §3

L559 E. faecalis = experiment: MIC, broth microdilution (CLSI); format: cell-based; settings: Enterococcus faecalis
Description: as §3

L1577 S. epidermidis = experiment: MIC, broth microdilution (CLSI); format: cell-based; settings: Staphylococcus epidermidis
Description: as §3

L49 S. pyogenes C203 = experiment: MIC, broth microdilution (CLSI); format: cell-based; settings: Streptococcus pyogenes
Description: as §3

L1400 S. aureus HA-MRSA = experiment: MIC, broth microdilution (CLSI); format: cell-based; settings: Staphylococcus aureus
Description: as §3

L44 S. pneumoniae = experiment: MIC, broth microdilution (CLSI); format: cell-based; settings: Streptococcus pneumoniae
Description: as §3

L560 E. faecalis VanA = experiment: MIC, broth microdilution (CLSI); format: cell-based; settings: Enterococcus faecalis
Description: as §3

L569 E. faecium VanA = experiment: MIC, broth microdilution (CLSI); format: cell-based; settings: Enterococcus faecium
Description: as §3

[8] = system: L4061 S. aureus MRSA - GISA; experiment: MIC, broth microdilution (CLSI); format: cell-based; settings: Staphylococcus aureus; L4061 S. aureus MRSA - GISA; cation-adjusted Mueller Hinton Broth, 35°C, 18-24 hours; read-out: MIC
Description: as §3

[9] = system: VA8101 S. agalactiae (Group B); experiment: MIC, broth microdilution (CLSI); format: cell-based; settings: Streptococcus agalactiae; VA8101 S. agalactiae (Group B); Todd Hewitt medium, 35°C, 18-24 hours; read-out: MIC
Description: as §3

L1730 S. haemolyticus = experiment: MIC, broth microdilution (CLSI); format: cell-based; settings: Staphylococcus haemolyticus
Description: as §3

L47 E. coli = experiment: MIC, broth microdilution (CLSI); format: cell-based; settings: Escherichia coli
Description: as §3

[10] = system: BJ5TA - ATCC CRL-4401 normal fibroblast; experiment: Cytotoxicity against human cells; format: cell-based; settings: at 200 µg/ml, the highest concentration tested
[11] = Stability as a function of pH; format: physicochemical; settings: basic pH
Description: as §2

human erythrocytes = experiment: Hemolytic activity; format: cell-based
L3294 M. catarrhalis = experiment: MIC, broth microdilution (CLSI); format: cell-based; settings: Moraxella catarrhalis
Description: as §3

Q: Which results are given for `COc1c(OC)c2c(=O)c3cc(C)n(C(CC4CN(C)C(=N)N4)C(=O)O)c(=O)c3c(=O)c2c2cc3c(=O)c4cc(O)cc(O)c4c(=O)c3c(OC)c12` (stereo not drawn) [compound 1, 2-(10,12-Dihydroxy-6,7,8-trimethoxy-3-methyl-1,5,9,14,16-pentaoxo-5,9,14,16-tetrahydro-1H-2-aza-hexaphen-2-yl)-3-(2-imino-1-methyl-imidazolidin-4-yl)-propionic acid]?
A: toxicity against human cells ([1]; Hela cells, the highest concentration tested): no toxicity; inhibit replication of HeLa cell [1]: does not inhibit; MIC (VA645601 B. clausii): 0.125 µg/mL (≈ 0.176 µM); MIC (VA827901 B. cereus): 0.06 µg/mL (≈ 0.0844 µM); MIC [2]: 0.06 µg/mL (≈ 0.0844 µM); ED50 [3]: 15 mg/kg; MIC (L145 C. albicans; L145 C. albicans, RPMI 1640 medium, 10^4 CFU/ml, 35°C, 18-24 hours, read-out: MIC): 256 µg/mL (≈ 360 µM); Solubility (Solubility; acetone): scarcely soluble; Solubility (Solubility; at basic pH): more soluble; Solubility (Solubility; dimethylformamide (DMF)): soluble; Solubility (Solubility; methanol (MeOH)): scarcely soluble; Solubility (Solubility; most low to medium- polarity organic solvents): poor; Solubility (Solubility; organic solvent or mixture, dimethylsulfoxide (DMSO), read-out: Solubility): > 50000 µg/mL; Solubility (Solubility; organic solvent or mixture, in alcohols, read-out: Solubility): 5000 to 10000 µg/mL (≈ 7040 to 14100 µM); Solubility (Solubility; water from acidic to neutral pH): poor; MIC [4]: 2 µg/mL (≈ 2.81 µM); toxicity against human cells [5]: no toxicity; MIC [6]: 0.015 µg/mL (≈ 0.0211 µM); MIC ([7]; L1729 S. haemolyticus MDR, cation-adjusted Mueller Hinton Broth, 35°C, 18-24 hours, read-out: MIC): 0.016 µg/mL (≈ 0.0225 µM); MIC (L819 S. aureus Smith; L819 S. aureus Smith, cation-adjusted Mueller Hinton Broth, 35°C, 18-24 hours, read-out: MIC): 0.06 µg/mL (≈ 0.0844 µM); MIC (L568 E. faecium; L568 E. faecium, cation-adjusted Mueller Hinton Broth, 35°C, 18-24 hours, read-out: MIC): 2 µg/mL (≈ 2.81 µM); MIC (L100 S. aureus ATCC6538P; L100 S. aureus ATCC6538P, cation-adjusted Mueller Hinton Broth, 35°C, 18-24 hours, read-out: MIC): 0.03 µg/mL (≈ 0.0422 µM); MIC (L559 E. faecalis; L559 E. faecalis, cation-adjusted Mueller Hinton Broth, 35°C, 18-24 hours, read-out: MIC): 0.03 µg/mL (≈ 0.0422 µM); MIC (L1577 S. epidermidis; L1577 S. epidermidis, cation-adjusted Mueller Hinton Broth, 35°C, 18-24 hours, read-out: MIC): 0.06 µg/mL (≈ 0.0844 µM); MIC (L49 S. pyogenes C203; L49 S. pyogenes C203, Todd Hewitt medium, 35°C, 18-24 hours, read-out: MIC): 16 µg/mL (≈ 22.5 µM); MIC (L1400 S. aureus HA-MRSA; L1400 S. aureus HA-MRSA, cation-adjusted Mueller Hinton Broth, 35°C, 18-24 hours, read-out: MIC): 0.03 µg/mL (≈ 0.0422 µM); MIC (L44 S. pneumoniae; L44 S. pneumoniae, Todd Hewitt medium, 35°C, 18-24 hours, read-out: MIC): 16 µg/mL (≈ 22.5 µM); MIC (L560 E. faecalis VanA; L560 E. faecalis VanA, cation-adjusted Mueller Hinton Broth, 35°C, 18-24 hours, read-out: MIC): 0.03 µg/mL (≈ 0.0422 µM); MIC (L569 E. faecium VanA; L569 E. faecium VanA, cation-adjusted Mueller Hinton Broth, 35°C, 18-24 hours, read-out: MIC): 2 µg/mL (≈ 2.81 µM); MIC [8]: 0.06 µg/mL (≈ 0.0844 µM); MIC [9]: 8 µg/mL (≈ 11.3 µM); MIC (L1730 S. haemolyticus; L1730 S. haemolyticus, cation-adjusted Mueller Hinton Broth, 35°C, 18-24 hours, read-out: MIC): 0.03 µg/mL (≈ 0.0422 µM); MIC (L47 E. coli; L47 E. coli, cation-adjusted Mueller Hinton Broth, 35°C, 18-24 hours, read-out: MIC): > 256 µg/mL; toxicity against human cells [10]: no toxicity; stable up to pH [11]: 8-9; hemolytic activity (human erythrocytes): no hemolytic activity

Q: With `COc1c(OC)c2c(=O)c3cc(C)n(C(CC4CN(C)C(=N)N4)C(=O)O)c(=O)c3c(=O)c2c2cc3c(=O)c4cc(O)cc(O)c4c(=O)c3c(O)c12` (stereo not drawn) [compound 2, 2-(8,10,12-Trihydroxy-6,7-dimethoxy-3-methyl-1,5,9,14,16-pentaoxo-5,9,14,16-tetrahydro-1H-2-aza-hexaphen-2-yl)-3-(2-imino-1-methyl-imidazolidin-4-yl)-propionic acid] as the compound, how does the MIC (L145 C. albicans) read?
A: > 512 µg/mL

Q: What about the MIC [7] of the same compound?
A: 0.06 µg/mL (≈ 0.0861 µM)

Q: What about the MIC (L819 S. aureus Smith) of the same compound?
A: 0.015 µg/mL (≈ 0.0215 µM)

Q: And the MIC (L568 E. faecium)?
A: 0.125 µg/mL (≈ 0.179 µM)

Q: And the MIC (L100 S. aureus ATCC6538P; ATCC6538P)?
A: 0.03 µg/mL (≈ 0.0431 µM)

Q: And the MIC (L559 E. faecalis)?
A: 0.03 µg/mL (≈ 0.0431 µM)

Q: And the MIC (L3294 M. catarrhalis)?
A: 64 µg/mL (≈ 91.9 µM)

Q: And the MIC (L1577 S. epidermidis)?
A: 0.03 µg/mL (≈ 0.0431 µM)

Q: And the MIC (L49 S. pyogenes C203)?
A: 1 µg/mL (≈ 1.44 µM)

Q: And the MIC (L1400 S. aureus HA-MRSA; MRSA)?
A: 0.03 µg/mL (≈ 0.0431 µM)

Q: And the MIC (L44 S. pneumoniae)?
A: 32 µg/mL (≈ 45.9 µM)

Q: And the MIC (L560 E. faecalis VanA)?
A: 0.03 µg/mL (≈ 0.0431 µM)

Q: What about the MIC (L569 E. faecium VanA) of the same compound?
A: 0.5 µg/mL (≈ 0.718 µM)

Q: And the MIC (L1730 S. haemolyticus)?
A: 0.03 µg/mL (≈ 0.0431 µM)

Q: And the MIC (L47 E. coli)?
A: > 512 µg/mL
